The target in assay [1] is lipase from Candida antarctica (CALB) (Moesziomyces antarcticus, UniProt P41365). The experiment in a line: De-esterification of PET-derived ester aldehydes by lipase CALB. Conditions: 1 mM substrate, 24 h, 30° C. It counts as biochemical.
Assay [2] relates to cvTA. Description: Endpoint bioconversion of PET-derived aldehydes to amines by cvTA. It counts as biochemical, Chromobacterium violaceum. The following applies: 10 mM substrate, 1.5 μM cvTA, 40 mM iPr-NH2, 24 h at 30° C., N=3. As for the experimental part: cvTA reactions for the conversion of 4FBA and TPAL to their corresponding amine (FIG. 8A) Endpoint bioconversion of 10 mM 4FBA to pAMBA (FIG. 8B) and 10 mM TPAL to pXYL (FIG. 8C) by 1.5 μM cvTA in 100 mM HEPES pH 7.5, 400 μM PLP with 40 mM iPr-NH2 as the amine donor. […] Sample size is N=3 and all data are shown as the mean±standard deviation.

Assay [3] deals with srCAR. The experiment in a line: Time course of enzymatic reduction of PET-derived carboxylates by srCAR with co-factor regeneration. In kind it is biochemical, Segniliparus rotundus. Conditions: 5 mM substrate, 3-enzyme NADPH and ATP regeneration system, N=3. As for the experimental part:
Endpoint in vitro assays showing the conversion of 5 mM TPA to TPAL after 24 h, with and without co-factor regenerating enzymes. […] Time course analysis of the enzymatic reduction of (i) 5 mM TPA, (ii) 5 mM 4FBA, (iii) 5 mM mmTPA and (iv) 5 mM MHET by CAR (FIG. 10B) All experiments included a 3-enzyme NADPH and ATP regeneration system. […] Sample size is N=3 and all data are shown as the mean±standard deviation. Error bars for certain points of the bioconversion of mmTPA to mm4FBA are smaller than the height of the symbol.

For assay [4], the system named is CAR from Segniliparus rotundus (srCAR). Description: CAR initial rate by NADPH oxidation (srCAR on PET-derived carboxylates). Conditions: average activity of srCAR on TPA, triplicate average; used to normalize the heatmap. It counts as biochemical. From the text: Using a sequence similarity network, CARs were sampled across distinct protein clusters to probe for activity on TPA. Of 22 cloned CARs, 17 expressed, with 9 of those CARs being unreported in literature (FIG. 9A). Anti-His6 Western blot of cell lysate from E. coli BL21 (DE3) harboring different CARs is shown by phylogeny (FIG. 9B). CARS were expressed under optimized conditions. The Western blot is comprised of two separate blots, which are delineated by the dashed lines and contain their own protein ladders. The first lane of the Western blot is a control lane consisting of lysate from E. coli BL21 (DE3) with no CAR plasmid. A band corresponding to the putative CAR from Streptomyces noursei was not detected during Western blot analysis but was confirmed in a separate experiment. The substrate specificity of CAR was evaluated on TPA, 4FBA, MHET and mmTPA, which are carboxylates related to PET depolymerization (FIG. 9C). In addition, pAMBA was tested, as it is a potential reaction intermediate in our proposed multienzyme cascade for the formation of amines. Under mild aqueous conditions, the conversion of CAR was tracked on TPA, 4FBA, MHET, mmTPA, pAMBA and the model aromatic acid, benzoic acid (FIG. 9D). Here, the oxidation of NADPH is measured as a proxy to aldehyde formation, as depletion of NADPH is linked to the consumption of substrate. […]

Sequence of lipase from Candida antarctica (CALB) (P41365 26-342): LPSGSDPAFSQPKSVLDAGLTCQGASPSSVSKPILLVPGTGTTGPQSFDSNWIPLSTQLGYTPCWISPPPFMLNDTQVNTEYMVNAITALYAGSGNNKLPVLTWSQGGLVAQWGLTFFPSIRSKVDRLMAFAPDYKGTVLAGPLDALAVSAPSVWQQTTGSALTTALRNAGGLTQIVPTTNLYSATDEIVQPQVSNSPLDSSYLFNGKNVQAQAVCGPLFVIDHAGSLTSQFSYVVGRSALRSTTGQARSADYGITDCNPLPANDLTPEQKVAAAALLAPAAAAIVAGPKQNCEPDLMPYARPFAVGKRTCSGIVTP

Regarding `O=Cc1ccc(C(=O)OCCO)cc1` [MHE-4FBA, 2-hydroxyethyl 4-formylbenzoate], in assay [1], the “de-esterification by CALB” value was “completely de-esterified”. Consider `O=Cc1ccc(C=O)cc1` [TPAL, terephthalaldehyde], for which the “endpoint bioconversion of aldehyde to amine” value in assay [2] is given as “proceeds to completion”. On to `COC(=O)c1ccc(C(=O)O)cc1` [mmTPA, monomethyl terephthalate], for which the “over-reduction of aldehyde product to alcohol during reduction” value (“over-reduction of aldehyde product” below) in assay [3] is recorded as “decline in concentration over time to the purported alcohol product”. For the molecule `COC(=O)c1ccc(C=O)cc1` [mm4FBA, methyl 4-formylbenzoate], the “de-esterification by CALB” value in assay [1] was “completely de-esterified”. Consider `O=Cc1ccc(C(=O)O)cc1` [4FBA, 4-formylbenzoic acid], for which, in assay [3], the “over-reduction of aldehyde product” value is “over-reduction of aldehydes to alcohols”. For the same molecule, the “endpoint bioconversion of aldehyde to amine” value in assay [2] is “proceeds to completion”. For `O=C(O)c1ccc(C(=O)O)cc1` [TPA, terephthalic acid], the “average initial rate (oxidation of NADPH as proxy to aldehyde formation)” value in assay [4] was determined as 4.80 mM NADPHox·h^−1·μMCAR^−1. The “over-reduction of aldehyde product” value in assay [3] is given as “over-reduction of aldehydes to alcohols”.

The record behind these values is patent US20250297292A1, “ENZYMATIC REDUCTION OR REDUCTIVE AMINATION OF ARYL AND HETEROCYCLIC CARBOXYLIC ACIDS AND ALDEHYDES” (University of Delaware Newark, priority 2022, published 2025).
